Assays:
Format in all cases: in vivo
rice (Oryra sativa) = test: Test B flooded paddy test; details: Flood, 250 g ai/ha; 0 to 100 scale where 0 is no effect and 100 is complete control; 13 to 15 d
Method in brief: (§1)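 Rating scale 0–100 (visual, vs untreated controls) after a 13–15 d greenhouse period; application to the flood layer, 3 cm above soil and maintained; plants at 2-leaf stage when treated.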

[1] = tested on: sedge, umbrella (small-flower umbrella sedge, Cyperus difformis); test: Test B flooded paddy test; details: Flood, 250 g ai/ha; 0 to 100 scale where 0 is no effect and 100 is complete control; 13 to 15 d
Method in brief: as §1

[2] = tested on: barnyardgrass (Echinochloa crus-galli); test: Test B flooded paddy test; details: Flood, 250 g ai/ha; 0 to 100 scale where 0 is no effect and 100 is complete control; 13 to 15 d
Method in brief: as §1

[3] = tested on: ducksalad (Heteranthera limosa); test: Test B flooded paddy test; details: Flood, 250 g ai/ha; 0 to 100 scale where 0 is no effect and 100 is complete control; 13 to 15 d
Method in brief: as §1

[4] = tested on: ryegrass, Italian (Italian ryegrass, Lolium multiflorum); test: Test A preemergence; details: for Plant response rating, Ryegrass, Italian: 125 g ai/ha, preemergence, 0 to 100 scale (0 no effect, 100 complete control); for Ryegrass, Italian plant response rating (0 to 100 scale, 0 is no effect, 100 is complete control): Preemergence, 500 g ai/ha, visual injury approx. 10 d
Method in brief: (§2)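 Visual injury, scored on a 0–100 scale relative to untreated controls, was recorded about 10 d after application. Treatments were a preemergence soil spray over planted seeds or a postemergence spray on plants at the one- to two-leaf stage, 2 to 10 cm tall, all in loam soil–sand blend in the greenhouse.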

[5] = tested on: pigweed (Amaranthus retroflexus); test: Test A preemergence; details: for Plant response rating, Pigweed: 125 g ai/ha, preemergence, 0 to 100 scale (0 no effect, 100 complete control); for Pigweed plant response rating (0 to 100 scale, 0 is no effect, 100 is complete control): Preemergence, 500 g ai/ha, visual injury approx. 10 d
Kochia (Kochia scoparia) [6] = test: Test A preemergence; details: for Plant response rating, Kochia: 125 g ai/ha, preemergence, 0 to 100 scale (0 no effect, 100 complete control); for Kochia plant response rating (0 to 100 scale, 0 is no effect, 100 is complete control): Preemergence, 500 g ai/ha, visual injury approx. 10 d
Method in brief: as §2

[7] = tested on: giant foxtail (Setaria faberii); test: Test A preemergence; details: for Plant response rating, Foxtail, Giant: 125 g ai/ha, preemergence, 0 to 100 scale (0 no effect, 100 complete control); for Foxtail, Giant plant response rating (0 to 100 scale, 0 is no effect, 100 is complete control): Preemergence, 500 g ai/ha, visual injury approx. 10 d
Method in brief: as §2

[8] = tested on: barnyardgrass (Echinochloa crus-galli); test: Test A preemergence; details: for Plant response rating, Barnyardgrass: 125 g ai/ha, preemergence, 0 to 100 scale (0 no effect, 100 complete control); for Barnyardgrass plant response rating (0 to 100 scale, 0 is no effect, 100 is complete control): Preemergence, 500 g ai/ha, visual injury approx. 10 d
Method in brief: as §2

[9] = tested on: ragweed (common ragweed, Ambrosia elatior); test: Test A preemergence; details: for Plant response rating, Ragweed: 125 g ai/ha, preemergence, 0 to 100 scale (0 no effect, 100 complete control); for Ragweed plant response rating (0 to 100 scale, 0 is no effect, 100 is complete control): Preemergence, 500 g ai/ha, visual injury approx. 10 d
Method in brief: as §2

[10] = tested on: ryegrass, Italian (Italian ryegrass, Lolium multiflorum); test: Test A postemergence; details: postemergence; for Ryegrass, Italian plant response rating: 125 g ai/ha, visual injury rating on 0 to 100 scale (0 no effect, 100 complete control), approx. 10 d; for Plant response rating, Ryegrass, Italian: 500 g ai/ha, 0 to 100 scale, 0 no effect, 100 complete control
Method in brief: as §2

[11] = tested on: wheat (Triticum aestivum); test: Test A postemergence; details: postemergence; for Wheat plant response rating: 125 g ai/ha, visual injury rating on 0 to 100 scale (0 no effect, 100 complete control), approx. 10 d; for Plant response rating, Wheat: 500 g ai/ha, 0 to 100 scale, 0 no effect, 100 complete control
Method in brief: as §2

[12] = tested on: pigweed (Amaranthus retroflexus); test: Test A postemergence; details: postemergence; for Pigweed plant response rating: 125 g ai/ha, visual injury rating on 0 to 100 scale (0 no effect, 100 complete control), approx. 10 d; for Plant response rating, Pigweed: 500 g ai/ha, 0 to 100 scale, 0 no effect, 100 complete control
Method in brief: as §2

Kochia (Kochia scoparia) [13] = test: Test A postemergence; details: postemergence; for Kochia plant response rating: 125 g ai/ha, visual injury rating on 0 to 100 scale (0 no effect, 100 complete control), approx. 10 d; for Plant response rating, Kochia: 500 g ai/ha, 0 to 100 scale, 0 no effect, 100 complete control
Method in brief: as §2

corn (Zea mays) = test: Test A postemergence; details: postemergence; for Corn plant response rating: 125 g ai/ha, visual injury rating on 0 to 100 scale (0 no effect, 100 complete control), approx. 10 d; for Plant response rating, Corn: 500 g ai/ha, 0 to 100 scale, 0 no effect, 100 complete control
Method in brief: as §2

[14] = tested on: giant foxtail (Setaria faberii); test: Test A postemergence; details: postemergence; for Foxtail, Giant plant response rating: 125 g ai/ha, visual injury rating on 0 to 100 scale (0 no effect, 100 complete control), approx. 10 d; for Plant response rating, Foxtail, Giant: 500 g ai/ha, 0 to 100 scale, 0 no effect, 100 complete control
Method in brief: as §2

[15] = tested on: barnyardgrass (Echinochloa crus-galli); test: Test A postemergence; details: postemergence; for Barnyardgrass plant response rating: 125 g ai/ha, visual injury rating on 0 to 100 scale (0 no effect, 100 complete control), approx. 10 d; for Plant response rating, Barnyardgrass: 500 g ai/ha, 0 to 100 scale, 0 no effect, 100 complete control
Method in brief: as §2

[16] = tested on: blackgrass (Alopecurus myosuroides); test: Test A postemergence; details: postemergence; for Blackgrass plant response rating: 125 g ai/ha, visual injury rating on 0 to 100 scale (0 no effect, 100 complete control), approx. 10 d; for Plant response rating, Blackgrass: 500 g ai/ha, 0 to 100 scale, 0 no effect, 100 complete control
Method in brief: as §2

[17] = tested on: ragweed (common ragweed, Ambrosia elatior); test: Test A postemergence; details: postemergence; for Ragweed plant response rating: 125 g ai/ha, visual injury rating on 0 to 100 scale (0 no effect, 100 complete control), approx. 10 d; for Plant response rating, Ragweed: 500 g ai/ha, 0 to 100 scale, 0 no effect, 100 complete control
Method in brief: as §2

[18] = tested on: Galium (catchweed bedstraw, Galium aparine); test: Test A postemergence; details: postemergence; for Galium plant response rating: 125 g ai/ha, visual injury rating on 0 to 100 scale (0 no effect, 100 complete control), approx. 10 d; for Plant response rating, Galium: 500 g ai/ha, 0 to 100 scale, 0 no effect, 100 complete control
Method in brief: as §2

CN1CC(c2ccc(Cl)cc2)C(C(=O)Nc2ccc(F)cc2F)C1=O (stereo not drawn) [Compound 436]
Plant response rating, Rice (rice (Oryra sativa)): 0
Plant response rating, Sedge, Umbrella [1]: 0
Plant response rating, Barnyardgrass [2]: 60
Plant response rating, Ducksalad [3]: 100
Plant response rating, Ryegrass, Italian [4]: 40
Ryegrass, Italian plant response rating (0 to 100 scale, 0 is no effect, 100 is complete control) [4]: 60
Plant response rating, Pigweed [5]: 80
Pigweed plant response rating (0 to 100 scale, 0 is no effect, 100 is complete control) [5]: 90
Plant response rating, Kochia (Kochia (Kochia scoparia) [6]): 70
Kochia plant response rating (0 to 100 scale, 0 is no effect, 100 is complete control) (Kochia (Kochia scoparia) [6]): 80
Plant response rating, Foxtail, Giant [7]: 90
Foxtail, Giant plant response rating (0 to 100 scale, 0 is no effect, 100 is complete control) [7]: 100
Plant response rating, Barnyardgrass [8]: 90
Barnyardgrass plant response rating (0 to 100 scale, 0 is no effect, 100 is complete control) [8]: 100
Plant response rating, Ragweed [9]: 0
Ragweed plant response rating (0 to 100 scale, 0 is no effect, 100 is complete control) [9]: 50
Ryegrass, Italian plant response rating [10]: 20
Plant response rating, Ryegrass, Italian [10]: 50
Wheat plant response rating [11]: 20
Plant response rating, Wheat [11]: 40
Pigweed plant response rating [12]: 20
Plant response rating, Pigweed [12]: 60
Kochia plant response rating (Kochia (Kochia scoparia) [13]): 40
Plant response rating, Kochia (Kochia (Kochia scoparia) [13]): 70
Corn plant response rating (corn (Zea mays)): 0
Plant response rating, Corn (corn (Zea mays)): 40
Foxtail, Giant plant response rating [14]: 80
Plant response rating, Foxtail, Giant [14]: 90
Barnyardgrass plant response rating [15]: 90
Plant response rating, Barnyardgrass [15]: 90
Blackgrass plant response rating [16]: 30
Plant response rating, Blackgrass [16]: 40
Ragweed plant response rating [17]: 0
Plant response rating, Ragweed [17]: 20
Galium plant response rating [18]: 60
Plant response rating, Galium [18]: 60

CN1CC(c2ccc(F)cc2)C(C(=O)Nc2ccccc2F)C1=O (stereo not drawn) [Compound 437]
Plant response rating, Rice (rice (Oryra sativa)): 0
Plant response rating, Sedge, Umbrella [1]: 0
Plant response rating, Barnyardgrass [2]: 65
Plant response rating, Ducksalad [3]: 100
Plant response rating, Ryegrass, Italian [4]: 0
Ryegrass, Italian plant response rating (0 to 100 scale, 0 is no effect, 100 is complete control) [4]: 50
Plant response rating, Pigweed [5]: 20
Pigweed plant response rating (0 to 100 scale, 0 is no effect, 100 is complete control) [5]: 80
Plant response rating, Kochia (Kochia (Kochia scoparia) [6]): 60
Kochia plant response rating (0 to 100 scale, 0 is no effect, 100 is complete control) (Kochia (Kochia scoparia) [6]): 70
Plant response rating, Foxtail, Giant [7]: 90
Foxtail, Giant plant response rating (0 to 100 scale, 0 is no effect, 100 is complete control) [7]: 100
Plant response rating, Barnyardgrass [8]: 90
Barnyardgrass plant response rating (0 to 100 scale, 0 is no effect, 100 is complete control) [8]: 90
Plant response rating, Ragweed [9]: 0
Ragweed plant response rating (0 to 100 scale, 0 is no effect, 100 is complete control) [9]: 60
Ryegrass, Italian plant response rating [10]: 0
Plant response rating, Ryegrass, Italian [10]: 20
Wheat plant response rating [11]: 0
Plant response rating, Wheat [11]: 40
Pigweed plant response rating [12]: 0
Plant response rating, Pigweed [12]: 20
Kochia plant response rating (Kochia (Kochia scoparia) [13]): 20
Plant response rating, Kochia (Kochia (Kochia scoparia) [13]): 30
Corn plant response rating (corn (Zea mays)): 0
Plant response rating, Corn (corn (Zea mays)): 20
Foxtail, Giant plant response rating [14]: 90
Plant response rating, Foxtail, Giant [14]: 90
Barnyardgrass plant response rating [15]: 90
Plant response rating, Barnyardgrass [15]: 90
Blackgrass plant response rating [16]: 0
Plant response rating, Blackgrass [16]: 30
Ragweed plant response rating [17]: 0
Plant response rating, Ragweed [17]: 0
Galium plant response rating [18]: 30
Plant response rating, Galium [18]: 50

CN1CC(c2ccc(F)cc2)C(C(=O)Nc2ccccc2S(C)(=O)=O)C1=O (stereo not drawn) [Compound 439]
Plant response rating, Rice (rice (Oryra sativa)): 0
Plant response rating, Sedge, Umbrella [1]: 0
Plant response rating, Barnyardgrass [2]: 40
Plant response rating, Ducksalad [3]: 100
Plant response rating, Ryegrass, Italian [4]: 0
Ryegrass, Italian plant response rating (0 to 100 scale, 0 is no effect, 100 is complete control) [4]: 50
Plant response rating, Pigweed [5]: 50
Pigweed plant response rating (0 to 100 scale, 0 is no effect, 100 is complete control) [5]: 80
Plant response rating, Kochia (Kochia (Kochia scoparia) [6]): 70
Kochia plant response rating (0 to 100 scale, 0 is no effect, 100 is complete control) (Kochia (Kochia scoparia) [6]): 70
Plant response rating, Foxtail, Giant [7]: 90
Foxtail, Giant plant response rating (0 to 100 scale, 0 is no effect, 100 is complete control) [7]: 100
Plant response rating, Barnyardgrass [8]: 90
Barnyardgrass plant response rating (0 to 100 scale, 0 is no effect, 100 is complete control) [8]: 90
Plant response rating, Ragweed [9]: 0
Ragweed plant response rating (0 to 100 scale, 0 is no effect, 100 is complete control) [9]: 60
Ryegrass, Italian plant response rating [10]: 0
Plant response rating, Ryegrass, Italian [10]: 30
Wheat plant response rating [11]: 0
Plant response rating, Wheat [11]: 40
Pigweed plant response rating [12]: 40
Plant response rating, Pigweed [12]: 50
Kochia plant response rating (Kochia (Kochia scoparia) [13]): 30
Plant response rating, Kochia (Kochia (Kochia scoparia) [13]): 70
Corn plant response rating (corn (Zea mays)): 0
Plant response rating, Corn (corn (Zea mays)): 20
Foxtail, Giant plant response rating [14]: 90
Plant response rating, Foxtail, Giant [14]: 90
Barnyardgrass plant response rating [15]: 90
Plant response rating, Barnyardgrass [15]: 90
Blackgrass plant response rating [16]: 0
Plant response rating, Blackgrass [16]: 60
Ragweed plant response rating [17]: 0
Plant response rating, Ragweed [17]: 20
Galium plant response rating [18]: 40
Plant response rating, Galium [18]: 50
